From PMC7127696 (Bioorganic & Medicinal Chemistry, 2015)
Like-named read-outs stand apart in the source and are kept apart here.

Tests used:
Para-influenza-3 virus = experiment: CPE reduction assay, para-influenza-3 virus in Vero cells; type: cell-based; settings: for EC50: Vero, read-out: Antiviral EC50 value, Para-influenza-3 virus
Reovirus-1 = experiment: CPE reduction assay, reovirus-1 in Vero cells; type: cell-based; settings: for EC50: Vero, read-out: Antiviral EC50 value, Reovirus-1
[1] = test system: Respiratory syncytial virus; experiment: CPE reduction assay, respiratory syncytial virus in HeLa cells; type: cell-based; settings: for Selectivity index (ratio of MCC to antiviral EC50), Respiratory syncytial virus: value in square brackets
Sindbis virus = experiment: CPE reduction assay, Sindbis virus in Vero cells; type: cell-based; settings: for EC50: Sindbis virus, Vero, read-out: Antiviral EC50 value, Sindbis virus
Vero cells = settings: microscopy
[2] = test system: HEL: human embryonic lung fibroblast cells; settings: microscopy
[3] = test system: MDCK: Madin-Darby canine kidney cells; settings: microscopy
HeLa cells = settings: microscopy
Punta Toro virus = experiment: CPE reduction assay, Punta Toro virus in Vero cells; type: cell-based
[4] = test system: Vesicular stomatitis virus; type: cell-based
Coxsackie B4 virus [5] = experiment: CPE reduction assay, Coxsackie B4 virus in HeLa cells; type: cell-based
Coxsackie B4 virus [6] = experiment: CPE reduction assay, Coxsackie B4 virus in Vero cells; type: cell-based
[7] = CPE inhibition, microscopy, mean ± SEM of three tests
[8] = Vero cells, CPE inhibition, microscopy
[9] = Vero cells, CPE inhibition, microscopy, mean ± SEM of three tests
[10] = Vero cells, value in square brackets

Row | Compound | EC50 (Para-influenza-3 virus) | EC50 (Reovirus-1) | MCC (compound concentration causing minimal changes in cell morphology) (Vero cells) | MCC (compound concentration causing minimal changes in cell morphology) [2] [μg/mL] | MCC (compound concentration causing minimal changes in cell morphology) [3] [μg/mL] | MCC (compound concentration causing minimal changes in cell morphology) (HeLa cells) [μg/mL] | further results
1 | CNC(=S)NNC(=O)c1[nH]c2ccc(F)cc2c1-c1ccccc1 [Compound 6a, 1-((5-Fluoro-3-phenyl-1H-indol-2-yl)carbonyl)-4-methyl-3-thiosemicarbazide] | > 100 µg/mL | > 100 µg/mL |  |  |  |  | 
2 | CCNC(=S)NNC(=O)c1[nH]c2ccc(F)cc2c1-c1ccccc1 [Compound 6b, 4-Ethyl-1-((5-fluoro-3-phenyl-1H-indol-2-yl)carbonyl)-3-thiosemicarbazide] | > 100 µg/mL | > 100 µg/mL |  |  |  |  | Selectivity index (ratio of MCC to antiviral EC50), Respiratory syncytial virus [1]: ≥ 5; EC50 (Sindbis virus): 3.2 ± 0.8 µg/mL
3 | CCCNC(=S)NNC(=O)c1[nH]c2ccc(F)cc2c1-c1ccccc1 [Compound 6c, 1-((5-Fluoro-3-phenyl-1H-indol-2-yl)carbonyl)-4-propyl-3-thiosemicarbazide] | > 100 µg/mL | > 100 µg/mL | 100 μg/mL |  |  |  | Selectivity index (ratio of MCC to antiviral EC50), Respiratory syncytial virus [1]: ≥ 9
4 | C=CCNC(=S)NNC(=O)c1[nH]c2ccc(F)cc2c1-c1ccccc1 [Compound 6d, 4-Allyl-1-((5-fluoro-3-phenyl-1H-indol-2-yl)carbonyl)-3-thiosemicarbazide] | > 100 µg/mL | > 100 µg/mL |  |  |  |  | Selectivity index (ratio of MCC to antiviral EC50), Respiratory syncytial virus [1]: ≥ 5
5 | CCCCNC(=S)NNC(=O)c1[nH]c2ccc(F)cc2c1-c1ccccc1 [Compound 6e, 4-Butyl-1-((5-fluoro-3-phenyl-1H-indol-2-yl)carbonyl)-3-thiosemicarbazide] | > 100 µg/mL | > 100 µg/mL |  | >10 |  |  | 
6 | O=C(NNC(=S)NCc1ccccc1)c1[nH]c2ccc(F)cc2c1-c1ccccc1 [Compound 6f, 4-Benzyl-1-((5-fluoro-3-phenyl-1H-indol-2-yl)carbonyl)-3-thiosemicarbazide] | > 100 µg/mL | > 100 µg/mL |  | >10 | >10 |  | 
7 | O=C(NNC(=S)NCCc1ccccc1)c1[nH]c2ccc(F)cc2c1-c1ccccc1 [Compound 6g, 1-((5-Fluoro-3-phenyl-1H-indol-2-yl)carbonyl)-4-phenethyl-3-thiosemicarbazide] | > 100 µg/mL | > 100 µg/mL |  |  |  |  | 
8 | CN1C(=O)CS/C1=N\NC(=O)c1[nH]c2ccc(F)cc2c1-c1ccccc1 [Compound 7a, 5-Fluoro-N′-(3-methyl-4-oxo-1,3-thiazolidinon-2-ylidene)-3-phenyl-1H-indol-2-carbohydrazide] | > 100 µg/mL | > 100 µg/mL |  | >100 | 100 | 100 | 
9 | CCN1C(=O)CS/C1=N\NC(=O)c1[nH]c2ccc(F)cc2c1-c1ccccc1 [Compound 7b, N′-(3-Ethyl-4-oxo-1,3-thiazolidinon-2-ylidene)-5-fluoro-3-phenyl-1H-indol-2-carbohydrazide] | > 100 µg/mL | > 100 µg/mL |  | >100 | 100 | >100 | 
10 | CCCN1C(=O)CS/C1=N\NC(=O)c1[nH]c2ccc(F)cc2c1-c1ccccc1 [Compound 7c, 5-Fluoro-N′-(4-oxo-3-propyl-1,3-thiazolidinon-2-ylidene)-3-phenyl-1H-indol-2-carbohydrazide] | > 100 µg/mL | > 100 µg/mL | >100 μg/mL | >100 | >100 | >100 | 
11 | C=CCN1C(=O)CS/C1=N\NC(=O)c1[nH]c2ccc(F)cc2c1-c1ccccc1 [Compound 7d, N′-[(2Z)-3-Allyl-4-oxo-1,3-thiazolidinon-2-ylidene]-5-fluoro-3-phenyl-1H-indol-2-carbohydrazide] | > 100 µg/mL | > 100 µg/mL | >100 μg/mL | >100 | 100 | >100 | 
12 | CCCCN1C(=O)CS/C1=N\NC(=O)c1[nH]c2ccc(F)cc2c1-c1ccccc1 [Compound 7e, N′-(3-Butyl-4-oxo-1,3-thiazolidinon-2-ylidene)-5-fluoro-3-phenyl-1H-indol-2-carbohydrazide] | > 100 µg/mL | > 100 µg/mL | >10 μg/mL | >10 | >10 | >100 | 
13 | O=C(N/N=C1\SCC(=O)N1Cc1ccccc1)c1[nH]c2ccc(F)cc2c1-c1ccccc1 [Compound 7f, N′-(3-Benzyl-4-oxo-1,3-thiazolidinon-2-ylidene)-5-fluoro-3-phenyl-1H-indol-2-carbohydrazide] | > 100 µg/mL | > 100 µg/mL | ⩾10 μg/mL | >10 | >10 | >100 | 
14 | O=C(N/N=C1\SCC(=O)N1CCc1ccccc1)c1[nH]c2ccc(F)cc2c1-c1ccccc1 [Compound 7g, 5-Fluoro-N′-(4-oxo-3-phenethyl-1,3-thiazolidinon-2-ylidene)-3-phenyl-1H-indol-2-carbohydrazide] | > 100 µg/mL | > 100 µg/mL |  | >10 | >10 | 100 | 
15 | NC(=O)c1ncn([C@@H]2O[C@H](CO)[C@@H](O)[C@H]2O)n1 [Ribavirin, ribavirin, reference compound] | > 250 µM | > 250 µM |  |  |  |  | EC50 (Sindbis virus): 250 µM; EC50 (Punta Toro virus; Punta Toro virus, Vero, read-out: Antiviral EC50 value, Punta Toro virus): 50 µM; MCC (compound concentration causing minimal changes in cell morphology) (HeLa cells; ribavirin data in μM): >250 μM; MCC (compound concentration causing minimal changes in cell morphology) (Vero cells; ribavirin data in μM): >250 μM
16 | dextran sulfate [DS-5000] |  |  | >100 μg/mL |  |  | >100 | Antiviral EC50 value, Vesicular stomatitis virus [4]: 8.0 ± 3.1 [>12] μg/mL; Selectivity index (ratio of MCC to antiviral EC50), Vesicular stomatitis virus [4]: 8.0 ± 3.1 [>12]; Antiviral EC50 value, Coxsackie B4 virus (Coxsackie B4 virus [5]; [7]): ≥ 4 µg/mL; Selectivity index (ratio of MCC to antiviral EC50), Coxsackie B4 virus (Coxsackie B4 virus [5]; value in square brackets): ≥ 25; Antiviral EC50 value, Respiratory syncytial virus [1, 7]: 5.3 ± 3.3 µg/mL; Selectivity index (ratio of MCC to antiviral EC50), Respiratory syncytial virus [1]: > 19; Antiviral EC50 value, Para-influenza-3 virus (Para-influenza-3 virus; [8]): >100 µg/mL; Antiviral EC50 value, Reovirus-1 (Reovirus-1; [8]): >100 µg/mL; Antiviral EC50 value, Sindbis virus (Sindbis virus; [9]): 68 ± 32 µg/mL; Selectivity index (ratio of MCC to antiviral EC50), Sindbis virus (Sindbis virus; [10]): > 1.5; Antiviral EC50 value, Coxsackie B4 virus (Coxsackie B4 virus [6]; [7]): 40 ± 10 µg/mL; Selectivity index (ratio of MCC to antiviral EC50), Coxsackie B4 virus (Coxsackie B4 virus [6]; value in square brackets): > 2.5; Antiviral EC50 value, Punta Toro virus (Punta Toro virus; [9]): 20 ± 0 µg/mL; Selectivity index (ratio of MCC to antiviral EC50), Punta Toro virus (Punta Toro virus; [10]): > 5
